These results are taken from patent US11839615B2, “Compounds and methods for treating addiction and related disorders” (Astrocyte Pharmaceuticals, Inc., priority 2018, dated 2023).

Each structure is given as a SMILES string.

Test [1] relates to astrocytes. The test is described as follows: Determination of ATP levels in astrocytes (luciferin-luciferase kit), control or GLUD1 shRNA. It counts as cell-based. The protocol: FIG. 7: GLUD1 Knockdown (KD) in astrocytes blocks P2Y1R and A3R-stimulated increases in ATP. A, B) Cells were treated with P2Y1R agonist MRS2365 for 20 mins in either normal glucose medium (A) or a glucose-free, galactose (B) supplemented media. Galactose forces cells to use oxidative phosphorylation for energy metabolism. […] Intracellular ATP levels were measured with a luciferin-luciferase kit.
P2Y1R and A3R agonists increased mitochondrial ATP production in astrocytes in a manner that was dependent on GLUD1 expression. One possible hypothesis is that glutamate catabolism into α-KG is mediated by GLUD1, which is enhanced by Ca^2+ dependent stimulation of the ICDH and α-KGDH in the TCA cycle. To test this hypothesis, GLUD1 expression levels were reduced in astrocyte cultures by incubating cells with specific shRNA. […] We repeated these experiments in the presence of galactose, a carbon source that forces cells to generate ATP though oxidative phosphorylation, since glycolysis of galactose is ATP neutral.
Cells were transduced with shRNA lentivirus constructs obtained from Santa Cruz (glud1 #145446-V, for Scrambled #108080). Cells were then seeded at single cell/well densities in a 96-well dish and selected for with puromycin. Clones were grown and tested for knockdown by western blot.
Astrocytes were plated at a density of 3000-5000 cells/well in a white, opaque-bottom 96-well dish (Corning). If cells were tested in galactose medium, they were seeded in galactose medium, and left for a minimum of 16 hours before subjected to treatment. Galactose medium was made with glucose-, pyruvate-, phenol-, and glutamine-free DMEM (Gibco) which was then supplemented with 0.9 mg/ml galactose (Sigma), pyruvate (Quality biological, Inc), and 10% dialyzed FBS (Gibco). Treatments were performed for 20 min unless otherwise stated and concentrations of drugs described elsewhere. Drugs used: MRS2365, MRS2500, AST-004, 3-Propyl-6-ethyl-5-[(ethylthio)carbonyl]-2 phenyl-4-propyl-3-pyridine carboxylate (MRS1523) (Tocris Bioscience), sodium dichloroacetate (DCA) (Sigma Aldrich), Oligomycin (Sigma Aldrich), 1-(2-(2-tert-Butylphenoxy)pyridin-3-yl)-3-(4-(trifluoromethoxy)phenyl)urea (BPTU) (Millipore), and Ruthenium 360 (Cal Biochem). Next, media was removed from cells, and 100 μl fresh media immediately added. Then, 95 μl of mixed luminescence substrate from the ATPlite 1-Step kit were added (Perkin-Elmer). Plates were wrapped in aluminum foil and shaken for 3 min on a plate rotator before reading on a luminometer. Readings were normalized to protein as determined by Coomassie Plus Bradford assay (Thermo Fisher). All statistics were analyzed using GraphPad Prism software.

Test [2] relates to traumatic brain injury (TBI). Nature of the test: Traumatic brain injury (TBI), GFAP expression by Western blot. Particulars: for TBI induced increases in GFAP expression: treatment 30 min post-TBI, ipsilateral brain homogenates and plasma at day 7, vs TBI untreated. For orientation: In western blotting, separated proteins are transferred to a membrane and probed.
Description: Mice underwent sham or TBI (on Ipsilateral side of brain) and received treatments as labeled 30 min post-TBI. Plasma was obtained from mice at 7 days post-injury, then sacrificed to obtain brain homogenates from the ipsilateral and contralateral hemispheres (middle third). Western blot analysis were normalized to actin. (A and C) Representative blots are shown for Ipsilateral brain homogenates and the plasma at day 7. (B and D) Data were pooled from 3 distinct experiments (N=number of mice per treatment) and plotted as bar histograms, shown as mean of control+/−SEM. *p<0.05 and ** p<0.01 from TBI untreated (dark gray bar).
The test system of test [3] is photothrombosis-induced stroke. Nature of the test: Photothrombotic induced model of stroke, lesion volume by TTC staining. Format: in vivo, mouse.
Test [4] relates to astrocytes (C8-D1A). Nature of the test: Oxygen consumption rate (OCR), Seahorse. Format: cell-based. As to the method:
FIG. 2: Oxygen Consumption Rate (OCR) is increased by purinergic agonist AST-004. Cultured astrocytes were plated on a standard Seahorse dish (24 well). After establishing basal OCR, purinergic agonist AST-004 or control (antagonist) was added at first arrow. […] The final addition of mitochondrial inhibitors uncovered non-mitochondrial OCR sources.
We previously reported that any agonist stimulating IP3-mediated Ca^2+ increases in astrocytes increased ATP production in astrocytes (1). […] Minimal change was observed under control injections. […] Addition of rotenone and antimycin uncovered non-mitochondrial sources of oxygen consumption, which was subtracted off from all measurements prior to calculations.
OCR was measured to calculate mitochondrial respiration and performed with a Seahorse XF96 extracellular flux analyzer. A 96-well system measures OCR from a monolayer of cultured intact cells, at intervals of ˜5 minutes. Astrocytes were plated on Seahorse microplates at least 2 days prior to OCR measurements. […] Injection of rotenone and antimycin, inhibitors of complex I and III respectively, uncover non-mitochondrial oxygen consumption.

Test [5] concerns cultured astrocytes. Nature of the test: Ca2+ measurements in dye-loaded (Cal520) cultured astrocytes. It counts as cell-based, mouse. The protocol:
FIG. 1: AST-004 increases intracellular Ca^2+ in cultured astrocytes. A) Image of resting Ca^2+ levels in dye-loaded (Cal520) astrocytes. B) Spatio-temporal plot of Ca^2+ fluorescence for the vertical line in panel A. AST-004 was added at 2 min. Note the oscillatory Ca^2+ responses for over 6 minutes. C) Plot of integrated Ca^2+ fluorescence intensities (DF/F0) at the indicated A3R agonist concentrations. Values are mean+/−SEM (data pooled from 3 experiments at each concentration). Images were acquired on the Nikon Sweptfield confocal microscope.
The low level stimulation of Ca2+ release persisted throughout the recording (FIG. 1A,B). It was not blocked by pertussis toxin treatment, consistent with Gq-coupling. The integrated Ca^2+ response was also dose-dependent (FIG. 1C) and present in astrocytes cultured from mouse, rat, pig and human brain tissue.
Protocol was modified from McCarthy et al., 1980 (4). Briefly, mice were anesthetized with isoflurane then cervically dislocated. Brains were quickly removed and chopped in trypsin, and allowed to incubate at 37° C. for 30 mins. DMEM/F-12 Media with 10% FCS and primocin was added and brains were triturated to homogenization and filtered through […] mesh, and seeded into culture flasks. The next day, homogenates were transferred to a new flask, and previous flasks had new media added. Cells were grown for 3-4 weeks, with DMEM/F-12 media changes every 3-4 days until cells were 70% confluent.
Ca^2+ activity was imaged as previously described (5). In brief, astrocytes were seeded on glass cover slips 3 and 4 nights before each experiment. Culture dishes were incubated with a fluorescent Ca^2+ sensitive dye (10 μM, Cal520, cell permeant, Abcam) 30 min prior to the experiment. Images were acquired with a confocal laser-scanning microscope at the rate of 1.5 images/s. Data were obtained in recording buffer (120 mM NaCl, 4.5 mM KCl, 1 mm CaCl2), 2 mM MgCl2, 10 mM HEPES, pH 7.4) at room temperature. Images were analyzed with Image J and NIS Elements.

The test system of test [6] is astrocytes of transgenic mice expressing the Luciferase-reporter gene (GFAP promoter). The test is described as follows: In vivo bioluminescent imaging of ATP in astrocytes after blunt TBI. The note with it: IP injection, two to 4 days after TBI, vs vehicle. Details: species or system mouse. The protocol:
FIG. 5: In Vivo Bioluminescent Imaging indicates AST-004 increases ATP. A) Transgenic mice expressing the Luciferase-reporter gene in astrocytes (GFAP promoter) were subjected to blunt TBI (Closed Cortical Impact). Two to 4 days after the initial trauma, mice were IP injected with a synthetic D-luciferin analogue (Cytluc1, 100 ul). Bioluminescent signals were recorded with an IVIS Spectrum Imager, 5 min after Cycluc1 injection (green arrow). Mice were then IP injected with either vehicle or AST-004 at […] (blue arrow), the photon flux immediately measured and then compared to the photon flux at 20 minutes (red arrow).
Transgenic mice expressing the Luciferase-reporter gene in astrocytes (GFAP promoter, Dual-Glo mice, Jackson laboratories) were subjected to blunt TBI (Closed Cortical Impact). Two to 4 days after the initial trauma, mice were IP injected with a synthetic D-luciferin analogue (Cycluc 1) and bioluminescent signals recorded on an IVIS Spectrum Imager (FIG. 5A).

Test [7] has as its system cocaine self-administering mice. Nature of the test: Cocaine self-administration. Format: in vivo, mouse. The note with it: osmotic minipump, 100 μL at 2.78 mM. The protocol: Data that are normalized to each mouse's individual cocaine intake at baseline. Mice were trained to self-administer cocaine (0.5 mg/kg/infusion) on a fixed ratio 3 schedule in 2-hr daily sessions. After their intake stabilized (baseline) mice were implanted with osmotic minipumps on day 0 either containing saline (filled circles) or the drug AST-004 (open circles), n=5 mice in each group. Mice were given a day off (day 7), then returned to self-administration in daily sessions. Note the number of infusions goes down in the AST-004 treated mice, while saline treated mice increased infusions.
We used procedures adapted from our recently published work that describes i.v. cocaine self-administration in fully fed mice (6, 7). Male C57BL/6J mice (6 to 7-week-old) purchased from Jackson labs and were kept on a 12/12-hour reverse light-dark cycle (lights off at 0900 h) with ad libitum access to food and water. Cocaine hydrochloride (generously provided by the NIDA drug supply program, Bethesda, MD) was dissolved in sterile physiological saline (NaCl 0.9%). Cocaine was prepared at a concentration that delivers 0.5 mg/kg/12 μL per infusion, based on a typical weight of a young adult mouse (28 g). Mice were implanted with an indwelling catheter in the right jugular vein. […]

The mark [8] stands for this setting: 20 min treatment, normal glucose medium.

Regarding `CSc1nc(N)c2ncn([C@H]3[C@H](O)[C@H](O)[C@]4(COP(=O)(O)OP(=O)(O)O)C[C@H]34)c2n1` [MRS2365], the “ATP levels, control cells (scrambled shRNA), galactose medium” value in test [1] (20 min treatment, glucose-free, galactose supplemented media) is on record as “significantly increased”. Further, in test [1] (setting [8]), the “ATP levels, astrocytes with reduced levels of GLUD1 (GLUD1 shRNA)” value is reported as “not responsive” and the “ATP levels, control cells (scrambled shRNA)” value is recorded as “significantly increased”. For the same compound, the “ATP levels, astrocytes with reduced GLUD1 levels, galactose medium” value in test [1] (in the presence of galactose) is listed as “similarly non-responsive”. In test [2], the “TBI induced increases in GFAP expression” value is given as “reduced”.
As for `CSc1nc(N)c2ncn([C@H]3[C@H](O)[C@H](O)[C@]4(CO)C[C@H]34)c2n1` [AST-004], the stroke infarction volume entry in test [3] (0.2 mg/kg, intraperitoneally within 30 min post stroke, 24 hours post-stroke, vs vehicle) is “significantly reduced”. Also, the “ATP production (OCR revealed by oligomycin)” value in test [4] (400 nM) is reported as “significantly greater”. For the same compound, the “basal respiration (OCR)” value in test [4] (after addition to the bath at 15 minutes, vs control injections) is listed as “increased”. Moreover, the “maximal respiration (OCR after FCCP)” value in test [4] (uncoupling by FCCP) is recorded as “significantly higher”. The “ATP levels, control cells (scrambled shRNA)” value in test [1] (setting [8]) is given as “increased ATP levels in a GLUD1-dependent manner”. The “integrated Ca2+ response” value in test [5] (astrocytes cultured from mouse, rat, pig and human brain tissue) was “dose-dependent”. For the same compound, the “intracellular Ca2+” value in test [5] (cultured astrocytes, Cal520 dye) is recorded as “stimulates intracellular Ca2+”. The “stimulation of Ca2+ release under pertussis toxin treatment” value in test [5] (pertussis toxin treatment, consistent with Gq-coupling) is “not blocked”. Further, the “photon flux levels (ATP-production in astrocytes)” value in test [6] is “significantly higher”. Moreover, the cocaine self-administration entry in test [7] (FR3, 2-hr daily sessions, vs saline) is “significantly reduces”. In addition, the “cocaine intake normalized to baseline” value in test [7] (over 2 weeks, n=5) is given as “approximately 60 % of baseline”. Moreover, the “neuroprotection after traumatic brain injury (TBI)” value in test [2] (mice) is recorded as “neuroprotective”. The “TBI induced increases in GFAP expression” value in test [2] is given as “reduced”.
Consider `CCCOC(=O)c1c(-c2ccccc2)nc(CC)c(C(=O)SCC)c1CCC` [MRS1523, 3-Propyl-6-ethyl-5-[(ethylthio)carbonyl]-2 phenyl-4-propyl-3-pyridine carboxylate, reference compound], for which the “reduction of stroke infarction volume by AST-004 after antagonist pretreatment” value in test [3] (pretreatment with the A3R antagonist) is reported as “blocked”.
